Laboratory results as given in ChEMBL document CHEMBL3621136, “Design, synthesis, and biological and docking studies of novel epipodophyllotoxinchalcone hybrids as potential anticancer agents” (Medchemcomm, 2015).

How the values were obtained:
Assay type in all cases: functional, cell-based
SW-620 = experiment: Cytotoxicity against human SW620 cells assessed as growth inhibition after 48 hrs by SRB assay; conditions: SW-620, 48 h
DU-145 = experiment: Cytotoxicity against human DU145 cells assessed as growth inhibition after 48 hrs by SRB assay; conditions: DU-145, 48 h
SK-N-SH = experiment: Cytotoxicity against human SK-N-SH cells assessed as growth inhibition after 48 hrs by SRB assay
HCT-15 = experiment: Cytotoxicity against human HCT15 cells assessed as growth inhibition after 48 hrs by SRB assay; conditions: HCT-15, 48 h
HeLa = experiment: Cytotoxicity against human HeLa cells assessed as growth inhibition after 48 hrs by SRB assay
COLO 205 = experiment: Cytotoxicity against human COLO205 cells assessed as growth inhibition after 48 hrs by SRB assay; conditions: COLO 205, 48 h

COc1cc([C@@H]2c3cc4c(cc3[C@@H](n3cc(COc5ccc(/C=C/C(=O)c6ccccc6)cc5)nn3)[C@H]3COC(=O)[C@H]23)OCO4)cc(OC)c1O gave an IC50 (SW-620) of 4.4 µM, an IC50 (DU-145) of 5.45 µM and an IC50 (SK-N-SH) of 8.3 µM. It also gave an IC50 (HCT-15) of 6.75 µM and an IC50 (HeLa) of 9.18 µM.
COc1ccc(/C=C/C(=O)c2ccc(OCc3cn([C@@H]4c5cc6c(cc5[C@@H](c5cc(OC)c(O)c(OC)c5)[C@H]5C(=O)OC[C@@H]54)OCO6)nn3)cc2)cc1 showed an IC50 (SW-620) of 10.3 µM, an IC50 (DU-145) of 12.5 µM and an IC50 (SK-N-SH) of 15.6 µM. It also gave an IC50 (HCT-15) of 7.45 µM and an IC50 (HeLa) of 6.8 µM.
Compound COc1cc([C@@H]2c3cc4c(cc3[C@@H](n3cc(COc5ccc(C(C)=O)cc5)nn3)[C@H]3COC(=O)[C@H]23)OCO4)cc(OC)c1O has an IC50 (SW-620) of 11.6 µM, an IC50 (DU-145) of 16.6 µM and an IC50 (SK-N-SH) of 11.6 µM. It also gave an IC50 (HCT-15) of 12 µM, an IC50 (COLO 205) of 14.8 µM and an IC50 (HeLa) of 18.9 µM.
Compound COc1cc([C@@H]2c3cc4c(cc3[C@@H](n3cc(COc5ccc(/C=C/C(=O)c6ccccc6)cc5)nn3)[C@H]3COC(=O)[C@H]23)OCO4)cc(OC)c1OC has an IC50 (SW-620) of 9.2 µM, an IC50 (DU-145) of 30 µM and an IC50 (SK-N-SH) of 25.6 µM. The IC50 (HCT-15) was 15.3 µM, the IC50 (COLO 205) was 29.3 µM and the IC50 (HeLa) was 19.1 µM.
COc1cc([C@@H]2c3cc4c(cc3[C@@H](n3cc(COc5ccc(C(=O)/C=C/c6ccccc6F)cc5)nn3)[C@H]3COC(=O)[C@H]23)OCO4)cc(OC)c1OC showed an IC50 (SW-620) of 8.12 µM, an IC50 (DU-145) of 20.2 µM and an IC50 (SK-N-SH) of 6.73 µM. For the same compound, the IC50 (HCT-15) was 12.9 µM and the IC50 (HeLa) was 17.2 µM.
COc1cc([C@@H]2c3cc4c(cc3[C@@H](n3cc(COc5ccc(C(=O)/C=C/c6cccc(F)c6)cc5)nn3)[C@H]3COC(=O)[C@H]23)OCO4)cc(OC)c1OC was tested, and the IC50 (SW-620) was 5.21 µM, the IC50 (DU-145) was 13.3 µM and the IC50 (SK-N-SH) was 12.4 µM. The IC50 (HCT-15) was 15.6 µM, the IC50 (COLO 205) was 7.32 µM and the IC50 (HeLa) was 14.2 µM.
For COc1cc([C@@H]2c3cc4c(cc3[C@@H](O[C@@H]3O[C@@H]5CO[C@@H](C)O[C@H]5[C@H](O)[C@H]3O)[C@H]3COC(=O)[C@H]23)OCO4)cc(OC)c1O [ETOPOSIDE], the IC50 (SW-620) was 13.2 µM, the IC50 (DU-145) was 16.4 µM and the IC50 (SK-N-SH) was 9.03 µM. For the same compound, the IC50 (HCT-15) was 12.2 µM, the IC50 (COLO 205) was 14.2 µM and the IC50 (HeLa) was 10.4 µM.
Work on COc1cc([C@@H]2c3cc4c(cc3[C@@H](n3cc(COc5ccc(/C=C/C(C)=O)cc5)nn3)[C@H]3COC(=O)[C@H]23)OCO4)cc(OC)c1O yielded an IC50 (SW-620) of 7.5 µM, an IC50 (DU-145) of 12 µM and an IC50 (SK-N-SH) of 10.3 µM. It also gave an IC50 (HCT-15) of 6.82 µM and an IC50 (HeLa) of 13.1 µM.
For COc1cc([C@@H]2c3cc4c(cc3[C@@H](n3cc(COc5ccc(C(=O)/C=C/c6ccccc6)cc5)nn3)[C@H]3COC(=O)[C@H]23)OCO4)cc(OC)c1OC, the IC50 (SW-620) was 2.02 µM, the IC50 (DU-145) was 30.2 µM and the IC50 (SK-N-SH) was 4.13 µM. It also gave an IC50 (HCT-15) of 12.8 µM, an IC50 (COLO 205) of 9.12 µM and an IC50 (HeLa) of 5.34 µM.
COc1cc([C@@H]2c3cc4c(cc3[C@@H](n3cc(COc5ccc(C(=O)/C=C/c6ccccc6)cc5)nn3)[C@H]3COC(=O)[C@H]23)OCO4)cc(OC)c1O was tested, and the IC50 (SW-620) was 0.64 µM, the IC50 (DU-145) was 12 µM and the IC50 (SK-N-SH) was 0.66 µM. It also gave an IC50 (HCT-15) of 9.5 µM, an IC50 (COLO 205) of 12.3 µM and an IC50 (HeLa) of 5.9 µM.
In the case of COc1cc([C@@H]2c3cc4c(cc3[C@@H](n3cc(COc5ccc(C(=O)/C=C/c6ccc(F)cc6)cc5)nn3)[C@H]3COC(=O)[C@H]23)OCO4)cc(OC)c1O, the IC50 (SW-620) is reported as 0.35 µM, the IC50 (DU-145) is reported as 12 µM and the IC50 (SK-N-SH) is reported as 0.39 µM. It also gave an IC50 (HCT-15) of 12.4 µM, an IC50 (COLO 205) of 12.5 µM and an IC50 (HeLa) of 4.5 µM.
In the case of COc1cc([C@@H]2c3cc4c(cc3[C@@H](n3cc(COc5ccc(C(=O)/C=C/c6cccc(C)c6)cc5)nn3)[C@H]3COC(=O)[C@H]23)OCO4)cc(OC)c1O, the IC50 (SW-620) is reported as 11.5 µM, the IC50 (DU-145) is reported as 20.5 µM and the IC50 (SK-N-SH) is reported as 13.5 µM. For the same compound, the IC50 (HCT-15) was 12.2 µM, the IC50 (COLO 205) was 15.4 µM and the IC50 (HeLa) was 9.32 µM.
COc1cc(/C=C/C(C)=O)ccc1OCc1cn([C@@H]2c3cc4c(cc3[C@@H](c3cc(OC)c(OC)c(OC)c3)[C@H]3C(=O)OC[C@@H]32)OCO4)nn1 was tested, and the IC50 (SW-620) was 3.41 µM, the IC50 (SK-N-SH) was 10 µM and the IC50 (HCT-15) was 10.4 µM. For the same compound, the IC50 (COLO 205) was 8.98 µM and the IC50 (HeLa) was 3.4 µM.
Work on COc1cc([C@@H]2c3cc4c(cc3[C@@H](n3cc(COc5ccc(C(=O)/C=C/c6cccc(F)c6)cc5)nn3)[C@H]3COC(=O)[C@H]23)OCO4)cc(OC)c1O yielded an IC50 (SW-620) of 5.36 µM, an IC50 (DU-145) of 7.4 µM and an IC50 (SK-N-SH) of 4.5 µM. For the same compound, the IC50 (COLO 205) was 5.15 µM and the IC50 (HeLa) was 6.4 µM.
Compound COc1cc([C@@H]2c3cc4c(cc3[C@@H](n3cc(COc5ccc(C(=O)/C=C/c6ccccc6F)cc5)nn3)[C@H]3COC(=O)[C@H]23)OCO4)cc(OC)c1O has an IC50 (SW-620) of 12.6 µM, an IC50 (DU-145) of 9.34 µM and an IC50 (SK-N-SH) of 7.4 µM. It also gave an IC50 (HCT-15) of 15.2 µM and an IC50 (COLO 205) of 12.3 µM.
COc1cc([C@@H]2c3cc4c(cc3[C@@H](n3cc(COc5ccc(/C=C/C(C)=O)cc5)nn3)[C@H]3COC(=O)[C@H]23)OCO4)cc(OC)c1OC showed an IC50 (SW-620) of 10.2 µM, an IC50 (DU-145) of 11.3 µM and an IC50 (SK-N-SH) of 14.4 µM. For the same compound, the IC50 (HCT-15) was 16.3 µM and the IC50 (COLO 205) was 7.6 µM.
Compound COc1cc([C@@H]2c3cc4c(cc3[C@@H](n3cc(COc5ccc(C(=O)/C=C/c6ccc(F)cc6)cc5)nn3)[C@H]3COC(=O)[C@H]23)OCO4)cc(OC)c1OC has an IC50 (SW-620) of 2.4 µM, an IC50 (DU-145) of 6.5 µM and an IC50 (SK-N-SH) of 3.4 µM. It also gave an IC50 (HCT-15) of 12 µM and an IC50 (COLO 205) of 13.2 µM.
COc1cc([C@@H]2c3cc4c(cc3[C@@H](n3cc(COc5ccc(C(=O)/C=C/c6cccc(C)c6)cc5)nn3)[C@H]3COC(=O)[C@H]23)OCO4)cc(OC)c1OC was tested, and the IC50 (SW-620) was 6.53 µM, the IC50 (DU-145) was 9.36 µM and the IC50 (SK-N-SH) was 7.13 µM. It also gave an IC50 (COLO 205) of 8.23 µM and an IC50 (HeLa) of 12.2 µM.
In the case of COc1cc([C@@H]2c3cc4c(cc3[C@@H](n3cc(COc5ccc(C(C)=O)cc5)nn3)[C@H]3COC(=O)[C@H]23)OCO4)cc(OC)c1OC, the IC50 (SW-620) is reported as 14.6 µM, the IC50 (DU-145) is reported as 13.6 µM and the IC50 (SK-N-SH) is reported as 15.6 µM. For the same compound, the IC50 (HCT-15) was 13.5 µM, the IC50 (COLO 205) was 18.8 µM and the IC50 (HeLa) was 18.5 µM.
Work on COc1ccc(/C=C/C(=O)c2ccc(OCc3cn([C@@H]4c5cc6c(cc5[C@@H](c5cc(OC)c(OC)c(OC)c5)[C@H]5C(=O)OC[C@@H]54)OCO6)nn3)cc2)cc1 yielded an IC50 (SW-620) of 11.2 µM, an IC50 (DU-145) of 10.2 µM and an IC50 (SK-N-SH) of 7.32 µM. The IC50 (HCT-15) was 6.12 µM and the IC50 (COLO 205) was 12.3 µM.
For COc1cc(/C=C/C(C)=O)ccc1OCc1cn([C@@H]2c3cc4c(cc3[C@@H](c3cc(OC)c(O)c(OC)c3)[C@H]3C(=O)OC[C@@H]32)OCO4)nn1, the IC50 (SW-620) was 5.66 µM, the IC50 (DU-145) was 6.5 µM and the IC50 (SK-N-SH) was 5.45 µM. It also gave an IC50 (HCT-15) of 12.4 µM, an IC50 (COLO 205) of 18.2 µM and an IC50 (HeLa) of 5 µM.
